Values of other authors, collected in patent US20170173097A1, “COMPOSITIONS FOR ENHANCING DETOXIFICATION AND USES THEREOF” (Specialty Nutrition Group, Inc., priority 2014, published 2017).
Where two headings read alike, the source gives them in different places.

Tested on: beta-glucuronidase

O=C([O-])[C@@H](O)[C@@H](O)[C@H](O)[C@@H](O)C(=O)[O-].[Ca+2] [calcium D-glucarate]
inhibition of beta-glucuronidase (in the blood): 57% | inhibition of beta-glucuronidase (in the intestines): 39% | inhibition of beta-glucuronidase (in the liver): 44% | inhibition of beta-glucuronidase (in the lungs): 37%
